Legend:
CF-1 male albino mice = experiment: Maximal Electroshock Test (MES); assay type: in vivo; conditions: oral; for MES Activity (in words): time not stated
Procedure: Anticonvulsant activity was determined using the MES test, run according to the procedure described in detail below. Swinyard E A, Woodhead J H, White H S, Franklin M R. Experimental selection, quantification, and evaluation of anticonvulsants. In Levy R H, et al., eds. Antiepileptic Drugs. 3rd ed. New York: Raven Press, 1989:85-102
CF-1 male albino mice (25-35 g) were fasted for 16 hours before testing. Mice were randomly selected into control and test groups, with the animals dosed with vehicle or test compound, at varying concentrations, respectively. On the study date, at 30 minutes prior to shock, the mice were orally dosed with vehicle (0.5% methylcellulose) or test compound (100-300 mg/kg). Seizures were induced by trans-corneal electric shock using a 60-Hz alternating current, 50 mA, delivered for 0.2 sec. The mice in the test groups were subjected to electrical stimulus at time intervals between 15 minutes and 4 hours following administration of test compound. […] The test was complete when the entire course of the convulsion has been observed (typically, less than 1 minute after electrical stimulation), and the mice were then immediately euthanized by carbon dioxide inhalation.
Abolition of the full body tonic extensor component of the seizure was taken as the endpoint of the test. […] The ED50 value of the test compound (calculated when appropriate) was the calculated dose required to block the hind limb tonic-extensor component of the MES-induced seizure in 50% of the rodents tested. A probit analysis was used to calculate the ED50 and 95% fiducial limits (FL).
Representative compounds of the present invention were tested according to the procedure described above, with results as listed in Table 4 below. Results are listed as number of mice with full body tonic extension prevented/total number of mice tested @ time (at a given test compound dosage level).

carbonic anhydrase = conditions: background statement, no assay details; cited from earlier work

Structure (SMILES)	melting point [°C]	further results
Nc1ccc2c(c1)O[C@@H](CNS(N)(=O)=O)CO2 [ID No. 36, (2S)-(−)-N-(7-Amino-2,3-dihydro-benzo[1,4]dioxin-2-ylmethyl)-sulfamide]	–	MES Activity (in words) (CF-1 male albino mice; 100 mg/kg): Inactive @ 100 and 300 mg/kg; MES Activity (in words) (CF-1 male albino mice; 300 mg/kg): Inactive @ 100 and 300 mg/kg
NS(=O)(=O)NC[C@H]1COc2cc(Cl)c(Cl)cc2O1 [ID No. 29, (2S)-(−)-N-(6,7 Dichloro-2,3-dihydro-benzo[1,4]dioxin-2-ylmethyl)-sulfamide]	119 to 121	MES Activity: number of mice with full body tonic extension prevented/total number of mice tested (CF-1 male albino mice; 100 mg/kg, @ 4 h): 3/5 @ 4 h (100 mg/kg)
CC1(C)O[C@@H]2[C@@H](CO[C@@]3(COS(N)(=O)=O)OC(C)(C)O[C@@H]23)O1 [Topiramate]	–	carbonic anhydrase inhibition (carbonic anhydrase): single digit micromolar
NS(=O)(=O)OC[C@H]1COc2cc(Cl)ccc2O1 (stereo in doubt) [ID No. 12, Sulfamic acid, 6-chloro-2,3-dihydro-benzo[1,4]dioxin-2-ylmethyl ester]	113 to 116	–
NS(=O)(=O)OCC1CCc2ccccc2O1 (stereo not shown) [ID No. 11, Chroman-2-ylmethylsulfamate]	87 to 90	–
NS(=O)(=O)NC[C@H]1COc2ccccc2O1 [ID No. 4, (2S)-(−)-N-(2,3-Dihydro-benzo[1,4]dioxin-2-ylmethyl)-sulfamide]	–	MES Activity: number of mice with full body tonic extension prevented/total number of mice tested (CF-1 male albino mice; 300 mg/kg, @ 1 h): 5/5 @ 1 h (300 mg/kg)
CN(C)S(=O)(=O)NCC1COc2ccccc2O1 (stereo not shown) [ID No. 6, N-(2,3-Dihydro-benzo[1,4]dioxin-2-ylmethyl)-N′,N′ dimethylsulfamide]	76 to 78	–
NS(=O)(=O)NCC1CCc2ccccc2O1 (stereo not shown) [ID No. 10, Chroman-2-ylmethylsulfamide]	100 to 101	–
Cc1ccc2c(c1)O[C@@H](CNS(N)(=O)=O)CO2 [ID No. 19, (2S)-(−)-N-(7-Methyl-2,3-dihydro-benzo[1,4]dioxin-2-ylmethyl)-sulfamide]	–	MES Activity: number of mice with full body tonic extension prevented/total number of mice tested (CF-1 male albino mice; 300 mg/kg, @ 0.5 h): 5/5 @ 0.5 h (300 mg/kg)
NS(=O)(=O)OC[C@H]1COc2cc(Cl)c(Cl)cc2O1 [ID No. 27, Sulfamic acid, 6.7 dichloro-2,3-dihydro-benzo[1,4]dioxin-2-ylmethyl ester]	109 to 111	MES Activity: number of mice with full body tonic extension prevented/total number of mice tested (CF-1 male albino mice; 100 mg/kg, @ 4 h): 5/5 @ 4 h (100 mg/kg)
CN(CC1COc2ccccc2O1)S(N)(=O)=O (stereo not shown) [ID No. 7, N-(2,3-Dihydro-benzo[1,4]dioxin-2-ylmethyl)-N-methylsulfamide]	97 to 98	–
NS(=O)(=O)NCCC1COc2ccccc2O1 (stereo not shown) [ID No. 16, 2-(2,3-Dihydro-benzo[1,4]dioxin-2-yl)-ethylsulfamide]	101 to 103	MES Activity: number of mice with full body tonic extension prevented/total number of mice tested (CF-1 male albino mice; 300 mg/kg, @ 0.5 h): 5/5 @ 0.5 h (300 mg/kg)

From patent publication US8084490B2, “Sulfamate and sulfamide derivatives useful for the treatment of epilepsy and related disorders” (Janssen Pharmaceutica N.V., priority 2004, dated 2011)
